Measured values reported in US7906709B2, “Methods for breeding glyphosate resistant plants and compositions thereof” (priority 2006, dated 2011).
Marks after values point to notes of the source that are not given here.

Legend:
[1] = system: S biotype of the California rigid ryegrass; test: Glyphosate drops on leaves, susceptible biotype; assay type: in vivo, Lolium rigidum; details: three 2 µl drops on two leaves, corresponds to 1.12 kg ai ha^-1; one week after treatment; ROUNDUP ULTRA (isopropylamine salt)
Description: (§1) Rigid ryegrass (Lolium rigidum Gaud.) plants are collected from an almond orchard intensively treated with glyphosate since 1984. The collected plants are grown and seed produced in greenhouse. The resistant, intermediate and susceptible biotypes are selected in the first generation using 1.12, 2.24, and 3.36 kg ai ha^−1 rates of glyphosate. Further selection is continued with a high glyphosate rate (8.96 kg ai ha^−1) to select for the resistant and with the low rate (0.28 kg ai ha^−1) to select for the susceptible individuals. The resistant (R) and susceptible (S) biotypes used in this example are generated from the 5th and 4th cycle, respectively.
R and S biotypes of the California rigid ryegrass are grown individually to the fully vegetatively mature stage prior to seedhead formation. In one experiment, two fully mature leaves of each plant (one R and one S biotypes) are treated with three 2 μl drops of glyphosate (glyphosate isopropylamine salt, ROUNDUP ULTRA™, Monsanto Co., St. Louis, Mo.) solution applied to the upper leaf surface. This corresponds to a field rate of 1.12 kg ai ha^−1 glyphosate at a volume of 187 L ha^−1 and pressure of 172.5 kPa. One week after treatment, the S biotype is dead, but no injury is observed on the R biotype.

[2] = system: first generation of rigid ryegrass (Lolium rigidum) collected from California; test: Glyphosate resistance and sensitivity of the first generation; assay type: in vivo; details: for Survivors: means of two experiments with 90 plants
Description: as §1
The collected plants produced seeds in the greenhouse after 8 to 10 weeks. The seeds are designated as the first generation, harvested and replanted for glyphosate resistant evaluation. The percentages of survivors are 89, 59, 45, and 9 percent following glyphosate application at 1×, 2×, 4× and 8×, respectively, is shown in Table 2.

[3] = system: Transformed Agrobacterium (glyphosate-resistant rigid ryegrass EPSPS); test: Growth in M-9 media with glyphosate, transformed with resistant EPSPS; assay type: cell-based, Agrobacterium tumefaciens; details: 48 hours
Description: The level of glyphosate resistance is assayed from resistant rigid ryegrass EPSPS-expressing Agrobacterium that are transformed with a DNA construct encoding the resistant EPSPS enzyme (SEQ. ID. NO. 16).
An EPSPS gene (SEQ. ID. NO. 15) is obtained from glyphosate resistant rigid ryegrass. The EPSPS gene is ligated with the binary vector pFGC5941, a 11406 bp construct with kanamycin resistant gene, BAR gene as a selectable marker, and 35S Promoter. The ligation is cloned in pGEM vector and grown in LB broth. The plasmid from cloned pGEM is confirmed for the inserted EPSPS gene by PCR.
The confirmed plasmid is transformed into Agrobacterium tumefaciens by “freeze thaw technique” using liquid nitrogen. The transformed Agrobacterium is grown in LB plated and maintained 28° C. for 72 h. Some colonies are grown in LB broth for 24 h and tested for the inserted EPSPS gene by PCR. The confirmed Agrobacterium is grown in 50 mL LB broth for 24 h. The Agrobacterium is centrifuged at 5000×g for 10 min, and the pellets are diluted with 2 mL 1.0 M CaCl2. At the same time, a wild-type Agrobacterium is also grown and extracted similar to the transformed Agrobacterium. The Agrobacterium solutions (10 μL) are grown in 50 mL media containing 1×M-9 salt media (SIGMA), 20 mM glucose, 2 mM MgSO4, and glyphosate at 0, 0.25, 0.5, 0.75, 1.0, 1.5, and 2 mM.
The growth (indicated by Optical Density 600 nm) is measured after 48 hours.

[4] = system: perennial ryegrass; test: Glyphosate sensitivity of perennial ryegrass parent; assay type: in vivo, Lolium perenne; details: sensitive parent
Description: The R biotype of California rigid ryegrass, which survived 8× glyphosate and perennial ryegrass, which died from 0.25× of glyphosate, are grown individually in 950-ml pots with professional planting mix media as discussed above. Plants are maintained in greenhouse with supplemental light, watered daily, and fertilized weekly with NPK water soluble fertilizer (20-20-20). At the mature vegetative stage, perennial ryegrass plants are vernalized in the growth chamber with the temperature 4 ±1 C, 8 h day and 16 h night. After 4 weeks vernalization, the plants are removed and maintained in greenhouse until flowering.
Segregation of glyphosate sensitivity in the F2 population is illustrated in FIG. 4. The percentage of the sensitive plants in F2 (16 percent) is higher than expected due to the glyphosate rate (0.5×) exceeded the sensitivity level of sensitive parents.

[5] = system: F2 population from cross between perennial ryegrass and glyphosate resistant rigid ryegrass; test: Glyphosate sensitivity of F2 hybrid population; assay type: in vivo, Lolium perenne x Lolium rigidum; details: 0.5× glyphosate; 3 WAT
Description: The population of F2 is evaluated for glyphosate sensitivity with 0.5× glyphosate. Severely injured and dead plants are recorded 3 weeks after treatment (WAT) and are designated similar to the sensitive (S) parent. The survivors are re-acclimated for further evaluation at 8× glyphosate. The survivors from 8× glyphosate are designated similar to resistant (R) parent. The rest of the population that responded between S and R are identified as intermediate (I).

[6] = system: F2 population of rigid ryegrass; test: Glyphosate sensitivity of F2 population (RxS intercross); assay type: in vivo, Lolium rigidum; details: of 400 F2 plants
Description: Twenty uniform non-sprayed plants of the F1 progeny (R×S) are grown and pooled to allow intercrossing to generate F2. Seeds are harvested at maturity and grown as described previously. Glyphosate sensitivity is further evaluated in the F2 population. At the tillering stage, as described previously, 400 plants of the F2 population are sprayed with 0.125× glyphosate (the rate used to identify the sensitive parent). The number of sensitive plants (severely injured and dead) is recorded 3 to 4 WAT. The survivors are re-acclimated for another week and re-sprayed with 8× glyphosate (the rate used to identify the resistant parent). The number of survivors is recorded 3 to 4 WAT. […] Expected ratios in the F2 population between sensitive, intermediate, and the resistant are evaluated with the model of one or two genes involved in the inheritance of glyphosate resistance as discussed in, for example, Diggle and Neve in Herbicide Resistance and World Grains, S. B. Powles and D. L. Shaner, eds. CRC Press, Boca Raton, London, New York, Washington, D.C., pp. 61-99 (2001). Chi-square analyses are used to determine the most acceptable ratio for F2 segregation and the inheritance of the glyphosate resistance.

[7] = glyphosate 1.12 kg ai ha^-1 (1x)
[8] = glyphosate 2.24 kg ai ha^-1 (2x)
[9] = glyphosate 4.48 kg ai ha^-1 (4x)
[10] = glyphosate 8.96 kg ai ha^-1 (8x)

Q: Which results are given for `O=C(O)CNCP(=O)(O)O` [glyphosate, N-(phosphonomethyl) glycine]?
A: Plant injury [1]: dead; Dead plants [2, 7]: 11^c percent; Survivors [2, 7]: 89%; Dead plants [2, 8]: 41%; Survivors [2, 8]: 59%; Dead plants [2, 9]: 55%; Survivors [2, 9]: 45%; Dead plants [2, 10]: 91%; Survivors [2, 10]: 9%; Survivors ([2]; glyphosate 8.96 kg ai ha^-1 (8x), listed as Glyphosate): 9^b percent; Growth, OD 600 nm ([3]; glyphosate 0.25 mM): 0.632; Growth, Percent ([3]; glyphosate 0.25 mM): 98%; Growth, OD 600 nm ([3]; glyphosate 0.50 mM): 0.185; Growth, Percent ([3]; glyphosate 0.50 mM): 29%; Growth, OD 600 nm ([3]; glyphosate 0.75 mM): 0.097; Growth, Percent ([3]; glyphosate 0.75 mM): 15%; Growth, OD 600 nm ([3]; glyphosate 1.00 mM): 0.025; Growth, Percent ([3]; glyphosate 1.00 mM): 4%; Growth, OD 600 nm ([3]; glyphosate 1.50 mM): 0.024; Growth, Percent ([3]; glyphosate 1.50 mM): 4%; Growth, OD 600 nm ([3]; glyphosate 2.00 mM): 0.02; Growth, Percent ([3]; glyphosate 2.00 mM): 3%; sensitivity level (glyphosate rate from which plants died) [4]: 0.25 ×; percentage of the sensitive plants in F2 [5]: 16%; Sensitive plants (died from 0.125× glyphosate), observed ([6]; 0.125× glyphosate, 3 to 4 WAT): 27 plants; Intermediate plants (0.125x-8x), observed ([6]; between 0.125× and 8× glyphosate): 352 plants; Resistant plants (survived 8× glyphosate), observed ([6]; re-sprayed with 8× glyphosate, 3 to 4 WAT): 21 plants
